Laboratory results taken from article PMC9939733 (The Journal of Biological Chemistry, 2023).
Substitutions are numbered along the chain they refer to. Where a name gives a salt, the structure may show the parent alone.

Key:
Type in all cases: biochemical
R140Q IDH2 [1] = molecular target: T1, R140Q IDH2 (Homo sapiens, UniProt P48735, R140Q); assay: Absorbance assay (NADPH consumption), substrate turnover in the absence of 2OG; details: no 2OG; 6.0 mM test compound, 0.03 μM R140Q IDH2, 50 μM NADPH; 2OG = 100
T1 construct: made in house; host or cells: Sf21 insect cells (cell pellets prepared at Evotec)
T1 sequence (P48735 40-452 R140Q): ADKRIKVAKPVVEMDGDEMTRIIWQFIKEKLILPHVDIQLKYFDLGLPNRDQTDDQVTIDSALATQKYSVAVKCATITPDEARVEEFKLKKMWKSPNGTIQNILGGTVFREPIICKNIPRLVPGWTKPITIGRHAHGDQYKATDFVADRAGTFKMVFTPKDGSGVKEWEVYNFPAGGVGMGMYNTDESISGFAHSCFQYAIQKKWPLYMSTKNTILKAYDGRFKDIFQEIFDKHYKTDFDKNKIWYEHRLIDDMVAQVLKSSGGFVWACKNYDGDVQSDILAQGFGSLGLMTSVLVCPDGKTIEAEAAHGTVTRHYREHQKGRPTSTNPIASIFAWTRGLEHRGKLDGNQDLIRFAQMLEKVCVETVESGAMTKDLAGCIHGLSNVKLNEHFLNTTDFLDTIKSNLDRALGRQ
Method: (§1) Compounds were dispensed using a CyBio SDW-CW CyBi-Well Simultaneous Pipettor and assay started using a ThermoFisher Multidrop Combi reagent dispenser.
(§2) Reactions were performed as technical quadruplicates.

R172K IDH2 [2] = molecular target: T2, R172K IDH2 (Homo sapiens, UniProt P48735, R172K); assay: as above; details: no 2OG; 1.0 mM test compound, 0.03 μM R172K IDH2, 50 μM NADPH; 2OG = 100
T2 construct: made in house; host or cells: Sf21 insect cells (cell pellets prepared at Evotec)
T2 sequence (P48735 40-452 R172K): T1 sequence (P48735 40-452 R140Q) with Q101R, R133K
Method: as §1, §2

R140Q IDH2 [3] = molecular target: T1, R140Q IDH2; assay: Absorbance assay, variant activity in the presence of equimolar 2OG (inhibition screen); details: 6.0 mM 2OG and 6.0 mM test compound, 0.03 μM R140Q IDH2, 50 μM NADPH
How it was run: (§3)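 Reactions were run as technical quadruplicates. Compounds were dispensed with a simultaneous pipettor, and each assay was started by adding reagent from a bulk dispenser.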

R172K IDH2 [4] = molecular target: T2, R172K IDH2; assay: as above; details: 1.0 mM 2OG and 1.0 mM test compound, 0.03 μM R172K IDH2, 50 μM NADPH
How it was run: as §3

WT IDH1 [5] = molecular target: T3, WT IDH1 (Homo sapiens, UniProt O75874); assay: Absorbance assay, WT activity in the presence of equimolar DL-isocitrate (inhibition); details: […] isocitrate and […] test compound, 75 μM NADP+, 2.0 nM WT IDH1
T3 construct: made in house; host or cells: Escherichia coli BL21(DE3) pLyS
How it was run: as §3

WT IDH2 [6] = molecular target: T4, WT IDH2 (Homo sapiens, UniProt P48735); assay: as above; details: […] isocitrate and […] test compound, 75 μM NADP+, 2.0 nM WT IDH2
T4 construct: made in house; host or cells: Sf21 insect cells (cell pellets prepared at Evotec)
T4 sequence (P48735 40-452): T1 sequence (P48735 40-452 R140Q) with Q101R
How it was run: as §3

WT IDH1 [7] = molecular target: T3, WT IDH1; assay: Absorbance assay, substrate activity in the absence of DL-isocitrate; details: no DL-isocitrate; […] test compound, 75 μM NADP+, 2.0 nM WT IDH1; compared to DL-isocitrate
How it was run: as §3

WT IDH2 [8] = molecular target: T4, WT IDH2; assay: as above; details: no DL-isocitrate; […] test compound, 75 μM NADP+, 2.0 nM WT IDH2; compared to DL-isocitrate
How it was run: as §3

R132H IDH1 [9] = molecular target: T5, R132H IDH1 (Homo sapiens, UniProt O75874, R132H); assay: Absorbance assay (NADPH consumption), substrate turnover in the absence of 2OG; design: made in house; host or cells: Escherichia coli BL21(DE3) pLyS; details: no 2OG; […] test compound, 0.03 μM R132H IDH1, 50 μM NADPH; 2OG = 100
Method: as §1, §2

R132H IDH1 [10] = molecular target: T5, R132H IDH1; assay: Absorbance assay, variant activity in the presence of equimolar 2OG (inhibition screen); design: made in house; host or cells: Escherichia coli BL21(DE3) pLyS; details: […] 2OG and […] test compound, 0.03 μM R132H IDH1, 50 μM NADPH
How it was run: as §3

T5 sequence (O75874 whole entry R132H): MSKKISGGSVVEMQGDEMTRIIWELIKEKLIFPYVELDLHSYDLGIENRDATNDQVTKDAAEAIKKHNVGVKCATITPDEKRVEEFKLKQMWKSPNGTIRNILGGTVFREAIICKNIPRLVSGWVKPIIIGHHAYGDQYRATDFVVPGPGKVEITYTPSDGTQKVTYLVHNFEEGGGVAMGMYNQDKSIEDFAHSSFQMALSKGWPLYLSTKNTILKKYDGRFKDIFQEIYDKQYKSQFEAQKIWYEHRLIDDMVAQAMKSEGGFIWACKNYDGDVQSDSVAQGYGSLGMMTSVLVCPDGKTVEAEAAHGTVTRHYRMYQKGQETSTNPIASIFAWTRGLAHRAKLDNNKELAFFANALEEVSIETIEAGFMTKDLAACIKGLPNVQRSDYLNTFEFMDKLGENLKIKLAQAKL
T3 sequence (O75874 whole entry): as the sequence (O75874 whole entry R132H) above, with H132R counted along it

CC(C(=O)O)C(C)C(=O)O (stereo not drawn) [1,2-dimethylsuccinic acid]
activity [%] (%-substrate conversion after 20 min incubation) (R140Q IDH2 [1]): < 10%
activity [%] (%-substrate conversion after 20 min incubation) (R172K IDH2 [2]): < 10%
activity [%] (%-substrate conversion after 20 min incubation) (R140Q IDH2 [3]): 110 ± 3%
activity [%] (%-substrate conversion after 20 min incubation) (R172K IDH2 [4]): 99 ± 5%
activity [%] (%-substrate conversion after 20 min incubation) (WT IDH1 [5]): 103 ± 1%
activity [%] (%-substrate conversion after 20 min incubation) (WT IDH2 [6]): 99 ± 1%
activity [%] (%-substrate conversion after 20 min incubation) (WT IDH1 [7]): < 10%
activity [%] (%-substrate conversion after 20 min incubation) (WT IDH2 [8]): < 10%
activity [%] (%-substrate conversion after 20 min incubation) (R132H IDH1 [9]): < 10%
activity [%] (%-substrate conversion after 20 min incubation) (R132H IDH1 [10]): 100 ± 2%

O=C(O)CC(S)C(=O)O (stereo not drawn) [2-mercaptosuccinic acid]
activity [%] (%-substrate conversion after 20 min incubation) (R140Q IDH2 [1]): < 10%
activity [%] (%-substrate conversion after 20 min incubation) (R172K IDH2 [2]): < 10%
activity [%] (%-substrate conversion after 20 min incubation) (R140Q IDH2 [3]): 91 ± 5%
activity [%] (%-substrate conversion after 20 min incubation) (R172K IDH2 [4]): 99 ± 4%
activity [%] (%-substrate conversion after 20 min incubation) (WT IDH1 [5]): 109 ± 4%
activity [%] (%-substrate conversion after 20 min incubation) (WT IDH2 [6]): 100 ± 1%
activity [%] (%-substrate conversion after 20 min incubation) (WT IDH1 [7]): < 10%
activity [%] (%-substrate conversion after 20 min incubation) (WT IDH2 [8]): < 10%
activity [%] (%-substrate conversion after 20 min incubation) (R132H IDH1 [9]): < 10%
activity [%] (%-substrate conversion after 20 min incubation) (R132H IDH1 [10]): 104 ± 4%

C[C@@](O)(CC(=O)O)C(=O)O [(R)-citramalic acid]
activity [%] (%-substrate conversion after 20 min incubation) (R140Q IDH2 [1]): < 10%
activity [%] (%-substrate conversion after 20 min incubation) (R172K IDH2 [2]): < 10%
activity [%] (%-substrate conversion after 20 min incubation) (R140Q IDH2 [3]): 110 ± 9%
activity [%] (%-substrate conversion after 20 min incubation) (R172K IDH2 [4]): 100 ± 5%
activity [%] (%-substrate conversion after 20 min incubation) (WT IDH1 [5]): 101 ± 1%
activity [%] (%-substrate conversion after 20 min incubation) (WT IDH2 [6]): 99 ± 2%
activity [%] (%-substrate conversion after 20 min incubation) (WT IDH1 [7]): < 10%
activity [%] (%-substrate conversion after 20 min incubation) (WT IDH2 [8]): < 10%
activity [%] (%-substrate conversion after 20 min incubation) (R132H IDH1 [9]): < 10%
activity [%] (%-substrate conversion after 20 min incubation) (R132H IDH1 [10]): 95 ± 2%

O=C(O)[C@@H]1CCCN1 [L-proline]
activity [%] (%-substrate conversion after 20 min incubation) (R140Q IDH2 [1]): < 10%
activity [%] (%-substrate conversion after 20 min incubation) (R172K IDH2 [2]): < 10%
activity [%] (%-substrate conversion after 20 min incubation) (R140Q IDH2 [3]): 106 ± 2%
activity [%] (%-substrate conversion after 20 min incubation) (R172K IDH2 [4]): 98 ± 4%
activity [%] (%-substrate conversion after 20 min incubation) (WT IDH1 [5]): 102 ± 1%
activity [%] (%-substrate conversion after 20 min incubation) (WT IDH2 [6]): 98 ± 1%
activity [%] (%-substrate conversion after 20 min incubation) (WT IDH1 [7]): < 10%
activity [%] (%-substrate conversion after 20 min incubation) (WT IDH2 [8]): < 10%
activity [%] (%-substrate conversion after 20 min incubation) (R132H IDH1 [9]): < 10%
activity [%] (%-substrate conversion after 20 min incubation) (R132H IDH1 [10]): 98 ± 1%

COC(=O)/C=C/C(=O)OC [dimethyl fumarate]
activity [%] (%-substrate conversion after 20 min incubation) (R140Q IDH2 [1]): < 10%
activity [%] (%-substrate conversion after 20 min incubation) (R172K IDH2 [2]): < 10%
activity [%] (%-substrate conversion after 20 min incubation) (R140Q IDH2 [3]): 61 ± 11%
activity [%] (%-substrate conversion after 20 min incubation) (R172K IDH2 [4]): 91 ± 2%
activity [%] (%-substrate conversion after 20 min incubation) (WT IDH1 [5]): 104 ± 4%
activity [%] (%-substrate conversion after 20 min incubation) (WT IDH2 [6]): 100 ± 3%
activity [%] (%-substrate conversion after 20 min incubation) (WT IDH1 [7]): < 10%
activity [%] (%-substrate conversion after 20 min incubation) (WT IDH2 [8]): < 10%
activity [%] (%-substrate conversion after 20 min incubation) (R132H IDH1 [9]): < 10%
activity [%] (%-substrate conversion after 20 min incubation) (R132H IDH1 [10]): 85 ± 3%

O=C(O)/C=C/C(=O)O [fumaric acid]
activity [%] (%-substrate conversion after 20 min incubation) (R140Q IDH2 [1]): < 10%
activity [%] (%-substrate conversion after 20 min incubation) (R172K IDH2 [2]): < 10%
activity [%] (%-substrate conversion after 20 min incubation) (R140Q IDH2 [3]): 112 ± 13%
activity [%] (%-substrate conversion after 20 min incubation) (R172K IDH2 [4]): 87 ± 6%
activity [%] (%-substrate conversion after 20 min incubation) (WT IDH1 [5]): 98 ± 1%
activity [%] (%-substrate conversion after 20 min incubation) (WT IDH2 [6]): 97 ± 1%
activity [%] (%-substrate conversion after 20 min incubation) (WT IDH1 [7]): < 10%
activity [%] (%-substrate conversion after 20 min incubation) (WT IDH2 [8]): < 10%
activity [%] (%-substrate conversion after 20 min incubation) (R132H IDH1 [9]): < 10%
activity [%] (%-substrate conversion after 20 min incubation) (R132H IDH1 [10]): 86 ± 3%
